Results published in patent publication US9926375B2, “Anti-endoglin antibodies and uses thereof” (Tracon Pharmaceuticals, Inc., priority 2014, dated 2018).

Legend:
human endoglin = biological target: T1, human endoglin (Homo sapiens, UniProt P17813); details: statement in description; cited from earlier work
T1 sequence (P17813 26-658): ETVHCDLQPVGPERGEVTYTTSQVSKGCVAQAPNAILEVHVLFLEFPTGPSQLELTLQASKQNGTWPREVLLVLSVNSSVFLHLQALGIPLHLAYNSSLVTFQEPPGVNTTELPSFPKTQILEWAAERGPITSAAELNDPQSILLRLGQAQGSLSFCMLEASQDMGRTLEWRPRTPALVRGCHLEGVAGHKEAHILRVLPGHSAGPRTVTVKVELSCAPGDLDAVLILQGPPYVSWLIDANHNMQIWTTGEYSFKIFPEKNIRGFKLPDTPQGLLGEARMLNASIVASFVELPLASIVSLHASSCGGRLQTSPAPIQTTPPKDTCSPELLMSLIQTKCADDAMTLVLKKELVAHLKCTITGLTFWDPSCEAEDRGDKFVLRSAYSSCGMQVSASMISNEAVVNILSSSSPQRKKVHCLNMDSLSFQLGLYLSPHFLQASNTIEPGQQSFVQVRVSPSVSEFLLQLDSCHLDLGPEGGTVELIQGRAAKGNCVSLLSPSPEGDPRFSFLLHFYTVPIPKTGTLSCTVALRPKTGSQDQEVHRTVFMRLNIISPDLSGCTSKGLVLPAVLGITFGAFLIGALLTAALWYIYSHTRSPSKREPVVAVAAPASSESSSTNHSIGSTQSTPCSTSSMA

NASH mice = experiment: Murine model of non-alcoholic steatohepatitis (NASH; STZ and high fat diet); assay type: in vivo, mouse
Excerpt: The purpose of this study was to examine the protective effects of endoglin antibodies on a murine model of NASH.
NASH was established by a single subcutaneous injection of STZ (Sigma, USA) after birth and feeding with a high fat diet (HFD; CLEA Japan, Japan) ad libitum after 4 weeks of age (day 28±2).
Randomization of mice into 6 groups of 10 mice was done at 9 weeks of age (day 63±2), the day before the start of treatment.
Group 3 (Positive control; Temlisartan Group): Ten NASH mice were be orally administered pure water supplemented with telmisartan at a dose of 10 mg/kg once daily from day 63 to 84.
Group 4 (Antibody M1043: M1043 Group): Ten NASH mice were intravenously administered vehicle supplemented with Antibody M1043 at a dose of 10 mg/kg twice weekly at day 63, 66, 70, 73, 77 and 80.
Group 5 (Antibody TRC105; TRC105 Group): Ten NASH mice were intravenously administered vehicle supplemented with Antibody TRC105 at a dose of 10 mg/kg twice weekly at day 63, 66, 70, 73, 77 and 80.
Group 6 (Antibody TRC205; TRC205 Group): Ten NASH mice were intravenously administered vehicle supplemented with Antibody TRC205 at a dose of 10 mg/kg twice weekly at days 63, 66, 70, 73, 77 and 80.
Mice in all groups were terminated for the following assays at 12 weeks of age.
H&E staining of liver tissue was conducted to estimate NAFLD Activity score.
Total NAS score represents the sum of scores for steatosis, lobular inflammation, and ballooning, and ranges from 0-8. Diagnosis of NASH (or, alternatively, fatty liver not diagnostic of NASH) should be made first, then NAS is used to grade activity. In the reference study, NAS scores of 0-2 occurred in cases largely considered not diagnostic of NASH, scores of 3-4 were evenly divided among those considered not diagnostic, borderline, or positive for NASH. Scores of 5-8 occurred in cases that were largely considered diagnostic of NASH.
Statistical tests were performed using Bonferroni Multiple Comparison Test. P values<0.05 were considered statistically significant.

[1] = tested on: BLM-induced pulmonary fibrosis model mice; experiment: Bleomycin-induced pulmonary fibrosis model; assay type: in vivo, mouse; details: vs isotype-control antibody group (isotype-control vs disease control group); day 21; Bonferroni, P<0.05
Procedure: Pathogen-free 7 weeks old female C57BL/6J mice were obtained from Japan SLC, Inc. (Japan). At day 0, 60 mice were induced to develop pulmonary fibrosis by a single intratracheal administration of bleomycin sulphate (BLM, Nippon Kayaku, Japan) in saline at a dose of 3 mg/kg, in a volume of 50 μL per animal using Microsprayer® (Penn-Century, USA).
BLM-induced pulmonary fibrosis model mice were randomized into 4 groups of 12 mice based on the body weight on the day before the start of treatment.
Group 3 (M1043 Antibody): Twelve BLM-induced pulmonary fibrosis model mice were intravenously administered vehicle supplemented with M1043 at a dose of 10 mg/kg twice weekly at day 7, 10, 14 and 17.
Group 4 (TRC105 human/mouse chimeric antibody): Twelve BLM-induced pulmonary fibrosis model mice were intravenously administered vehicle supplemented with TRC105 at a dose of 10 mg/kg twice weekly at day 7, 10, 14 and 17.
Group 5 (BIBF1120 inhibitor for Idiopathic Pulmonary Fibrosis—positive control, Boehringer Ingelheim): Twelve BLM-induced pulmonary fibrosis model mice were orally administered 1% CMC supplemented with BIBF1120 at a dose of 100 mg/kg once daily from day 7 to 21. […]
Histological analysis of lung sections was conducted by practitioners who are not aware of the Group identity. Masson's Trichrome staining is conducted and an Ashcroft Score estimate was determined. […]

mouse endoglin [2] = biological target: T2, mouse endoglin (Mus musculus, UniProt Q63961); experiment: Inhibition of mouse BMP binding to mouse endoglin (statement, no method); details: statement in description
T2 sequence (Q63961 27-653): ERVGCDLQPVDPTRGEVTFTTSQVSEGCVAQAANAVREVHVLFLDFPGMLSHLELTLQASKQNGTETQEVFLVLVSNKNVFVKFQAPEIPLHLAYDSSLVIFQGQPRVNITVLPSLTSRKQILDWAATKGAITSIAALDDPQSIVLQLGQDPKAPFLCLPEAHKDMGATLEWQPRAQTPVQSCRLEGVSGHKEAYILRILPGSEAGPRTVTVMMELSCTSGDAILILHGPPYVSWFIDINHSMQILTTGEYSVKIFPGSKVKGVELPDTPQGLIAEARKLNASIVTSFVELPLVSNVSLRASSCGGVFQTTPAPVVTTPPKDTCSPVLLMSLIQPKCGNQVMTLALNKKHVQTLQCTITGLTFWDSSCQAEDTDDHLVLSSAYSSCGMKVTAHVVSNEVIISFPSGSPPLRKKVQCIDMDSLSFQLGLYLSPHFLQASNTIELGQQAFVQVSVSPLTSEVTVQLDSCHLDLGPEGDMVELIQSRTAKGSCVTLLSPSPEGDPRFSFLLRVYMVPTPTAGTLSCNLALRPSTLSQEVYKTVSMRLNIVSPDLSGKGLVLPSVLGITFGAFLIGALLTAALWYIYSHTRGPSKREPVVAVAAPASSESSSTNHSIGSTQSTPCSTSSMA

mouse endoglin [3] = biological target: T3, mouse endoglin (Mus musculus, UniProt Q63961); experiment: Competition ELISA of mouse BMP9 against biotinylated M1043 for binding to mouse endoglin; details: 30 μg/ml to 0.004 μg/ml competitor; biotinylated M1043 40 ng/ml
T3 construct: purchased R&D Systems 1320-EN-025
T3 sequence (Q63961 27-581 limits assumed): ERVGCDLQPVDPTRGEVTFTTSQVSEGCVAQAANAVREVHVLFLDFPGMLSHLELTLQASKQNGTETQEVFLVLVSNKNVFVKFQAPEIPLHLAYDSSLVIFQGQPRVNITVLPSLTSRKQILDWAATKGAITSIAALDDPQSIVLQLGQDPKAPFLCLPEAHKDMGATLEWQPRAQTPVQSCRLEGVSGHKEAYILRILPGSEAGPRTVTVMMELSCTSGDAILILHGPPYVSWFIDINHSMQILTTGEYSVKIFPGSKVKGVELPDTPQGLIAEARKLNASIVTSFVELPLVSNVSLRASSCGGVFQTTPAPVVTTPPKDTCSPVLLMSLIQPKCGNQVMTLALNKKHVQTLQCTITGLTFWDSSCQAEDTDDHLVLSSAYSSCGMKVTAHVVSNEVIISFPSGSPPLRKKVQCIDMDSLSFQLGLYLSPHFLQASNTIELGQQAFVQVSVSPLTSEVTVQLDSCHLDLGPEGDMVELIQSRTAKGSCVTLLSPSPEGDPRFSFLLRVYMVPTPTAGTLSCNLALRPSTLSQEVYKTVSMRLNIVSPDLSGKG
Procedure: The ability of mouse BMP9 to compete with the rat antibody M1043 for binding to mouse endoglin was determined by competition ELISA as follows: 200 μg of M1043 antibody was biotinylated with a Lightning-Link biotinylation kit (Innova Biosciences, Cat. No. 704-0010) according to the manufacturers recommendations. Nunc Immuno MaxiSorp 96 well flat bottom plates (Fisher Cat. No. DIS-971-030J) were coated with mouse endoglin (R&D Systems, Cat. No. 1320-EN-025) at 1 μg/ml in PBS overnight at 4° C. The following day the plate was washed three times with PBST before blocking with PBST/3% Marvel at room temperature for 1 hour. A threefold dilution series (30 μg/ml to 0.004 μg/ml) of mouse BMP9 (R&D Systems, Cat. No. 5566-BP-010) or an irrelevant rat IgG1 was mixed with a fixed concentration of biotinylated M1043 (40 ng/ml), added to the plate and incubated for 1 hour at room temperature. Binding of the biotinylated antibody was detected via streptavidin-HRP (Sigma, Cat. No. 55512) and TMB substrate (Sigma, Cat. No. T0440). OD450 nm values were measured on a Dynex MRX TCII plate reader.

[4] = liver gene expression, mean ± SD, Normal-Vehicle 1.0

Question: Which “Effect on human BMP binding to human endoglin” value (human endoglin) does the source give for “TRC105: human murine chimeric IgG1 monoclonal antibody that binds endoglin; VL/VH SEQ ID NOS. 1 and 39” here?
Answer: The value was “competitively inhibits human BMP binding”.

Question: And the “Liver triglyceride contents compared with the NASH-Vehicle group” value (NASH mice; Bonferroni, P<0.05)?
Answer: The value was “tended to decrease”.

Question: And the “NAS compared with the NASH-Vehicle group” value (NASH mice; Bonferroni, P<0.05)?
Answer: Its value is “tended to decrease in NAS”.

Question: What about the “Serum alanine aminotransferase (ALT) levels compared with the NASH-Vehicle group” value (NASH mice; Bonferroni, P<0.05) of the same molecule?
Answer: Its value is “no significant difference”.

Question: And the “Serum alkaline phosphatase (ALP) levels compared with the NASH-Vehicle group” value (NASH mice; Bonferroni, P<0.05)?
Answer: Its value is “tended to decrease”.

Question: What about the “Tissue inhibitor of metalloproteinase-1 mRNA expression levels compared with the NASH-Vehicle group” value (NASH mice; Bonferroni, P<0.05) of the same molecule?
Answer: The value was “significantly up-regulated”.

Question: What about the “Tumor necrosis factor-alpha mRNA expression levels compared with the NASH-Vehicle group” value (NASH mice; Bonferroni, P<0.05) of the same molecule?
Answer: The value was “significantly up-regulated”.

Question: And the “F4/80-positive signals and cells in liver compared with the NASH-Vehicle group” value (NASH mice; F4/80 immunostaining, macrophage marker)?
Answer: Its value is “Lower F4/80-positive signals and positive cells”.

Question: And the “Alpha-SMA mRNA expression” value (NASH mice; [4])?
Answer: The value was 1.7 ± 0.7.

Question: What about the “MCP-1 mRNA expression” value (NASH mice; [4]) of the same molecule?
Answer: The value was 5.7 ± 4.2.

Question: What about the “TIMP-1 mRNA expression” value (NASH mice; [4]) of the same molecule?
Answer: Its value is 25.4 ± 23.0.

Question: What about the “TNF-α mRNA expression” value (NASH mice; [4]) of the same molecule?
Answer: Its value is 12.9 ± 9.5.

Question: What about the Liver triglyceride (NASH mice; mean ± SD) of the same molecule?
Answer: The Liver triglyceride was 31.1 ± 20.3 mg/g liver.

Question: And the “Serum ALP” value (NASH mice; mean ± SD)?
Answer: Its value is 291 ± 119 U/L.

Question: What about the “Serum ALT” value (NASH mice; mean ± SD) of the same molecule?
Answer: The value was 62 ± 57 U/L.

Question: And the “Serum AST” value (NASH mice; mean ± SD)?
Answer: The value was 204 ± 205 U/L.

Question: What about the Sirius red-positive area (NASH mice; mean ± SD, liver sections) of the same molecule?
Answer: Its Sirius red-positive area is 0.92 ± 0.20%.

Question: What about the “NAS (NAFLD Activity score)” value (NASH mice; mean ± SD, range 0-8, 10 mg/kg) of the same molecule?
Answer: The value was 4.4 ± 1.4.

Question: And the “Steatosis score 0, number of mice” value (NASH mice; score 0 = <5%, 12 weeks of age)?
Answer: Its value is 1.

Question: What about the “Hepatocyte ballooning score 0, number of mice” value (NASH mice; score 0 = None) of the same molecule?
Answer: The value was 3.

Question: And the “Steatosis score 1, number of mice” value (NASH mice; score 1 = 5-33%)?
Answer: Its value is 6.

Question: What about the “Lobular inflammation score 1, number of mice” value (NASH mice; score 1 = <2 foci/200x) of the same molecule?
Answer: The value was 1.

Question: What about the “Lobular inflammation score 2, number of mice” value (NASH mice; score 2 = 2-4 foci/200x) of the same molecule?
Answer: Its value is 5.

Question: And the “Steatosis score 2, number of mice” value (NASH mice; score 2 = >33-66%)?
Answer: The value was 1.

Question: And the “Hepatocyte ballooning score 2, number of mice” value (NASH mice; score 2 = Many cells/prominent ballooning)?
Answer: Its value is 5.

Question: What about the “Lobular inflammation score 3, number of mice” value (NASH mice; score 3 = >4 foci/200x) of the same molecule?
Answer: The value was 2.

Question: And the “Ashcroft score, comparison between groups” value [1]?
Answer: Its value is “significantly lower”.

Question: What about the “Effect on mouse BMP binding to mouse endoglin” value (mouse endoglin [2]) of the same molecule?
Answer: Its value is “dose not prevent the binding of mouse BMP to mouse endoglin”.

B1: mouse BMP9: mouse BMP9 (R&D Systems, Cat. No. 5566-BP-010), endoglin ligand (protein)
chain: STGASSHCQKTSLRVNFEDIGWDSWIIAPKEYDAYECKGGCFFPLADDVTPTKHAIVQTLVHLKFPTKVGKACCVPTKLSPISILYKDDMGVPTLKYHYEGMSVAECGCR
Question: Which “Competition with biotinylated M1043 for binding to mouse endoglin” value (mouse endoglin [3]) does the source give for B1 here?
Answer: The value was “competed with biotinylated M1043 for binding to mouse endoglin”.
